Reference: patent US6890537B2, “Antimicrobial theta defensins and methods of using same” (The Regents of the University of California, priority 1999, dated 2005)
Positions of bridges follow the written chain, without caps; N, C: chain ends. Residues, ends and D or L forms follow the SMILES beside them.

Legend:
[1] = system: C. albicans; assay: Microbicidal suspension assay (colony counts); assay type: cell-based, Candida albicans; conditions: 2 hr, 37° C., 10 mM PIPES, pH 7.4, 5 mM glucose; FIG. 9D
Experimental: (§1) Killing was quantified by colony counts. Panels B-D show incubation of the indicated organisms with RTD-1 peptide: Listeria monocytogenes and Staphylococcus aureus (Panel B); Salmonella typhimurium and Escherichia coli (Panel C); and Cryptococcus neoformans and Candida albicans (Panel D). The limit of detection (1 colony per plate) was equal to 1×10^3 colony forming units in the incubation mixture.
(§2) Additional antimicrobial assays were conducted on other microbial organisms. […] In FIG. 9A, S. aureus 502a was incubated with increasing concentrations of natural or synthetic peptide for 30 min at 37° C. in 10 mM PIPES, pH 7.4, containing 5 mM glucose. Killing was quantified by colony counts. […] The limit of detection (1 colony per plate) was equal to 1×10^3 colony forming units in the incubation mixture.

[2] = system: Escherichia coli ML35; assay: Agar diffusion assay; assay type: cell-based
Experimental: (§3) The purified chromatographic peaks were screened for antibacterial activity against Escherichia coli ML35 and Staphylococcus aureus 502a. Briefly, antibacterial activity was screened with an agar diffusion assay using lyophilized samples of HPLC fractions dissolved in 5 μl of 0.01% acetic acid as described by Lehrer et al., J. Immunol. Methods 137:167-173 (1991)).
(§4) Agar diffusion assays and microbicidal suspension assays were used to examine the activity of theta defensin against Staphylococcus aureus 502A, Escherichia coli ML35, Listeria monocytogenes, and Cryptococcus neoformans.

[3] = system: Staphylococcus aureus 502a; assay: Agar diffusion assay; assay type: cell-based
Experimental: as §3, §4

[4] = system: S. typhimurium; assay: Microbicidal suspension assay (colony counts); assay type: cell-based, Salmonella typhimurium; conditions: 2 hr, 37° C., 10 mM PIPES, pH 7.4, 5 mM glucose; FIG. 9C
Experimental: as §1, §2

[5] = system: L. monocytogenes; assay: Microbicidal suspension assay (colony counts); assay type: cell-based, Listeria monocytogenes; conditions: 2 hr, 37° C., 10 mM PIPES, pH 7.4, 5 mM glucose; FIG. 9B
Experimental: as §1, §2

[6] = system: Cryptococcus neoformans 271A; assay: Agar diffusion assay; assay type: cell-based; conditions: 10, 30, 100 or 300 μg/ml; agar seeded with 1×10^6 colony forming units; FIG. 7
Description: as §4

[7] = system: Listeria monocytogenes EGD; assay: Agar diffusion assay; assay type: cell-based; conditions: 10, 30, 100 or 300 μg/ml; agar seeded with 1×10^6 colony forming units; FIG. 7
Description: as §4

[8] = system: E. coli ML 35; assay: Microbicidal suspension assay (colony counts); assay type: cell-based, Escherichia coli
Experimental: as §1, §2
(§5) An acyclic version of theta defensin was also tested for antimicrobial activity. […] Killing activity was quantified by colony counts after 18 hrs.

[9] = system: Staphylococcus aureus 502a; assay: Microbicidal suspension assay (colony counts); assay type: cell-based
Experimental: S. aureus 502a was incubated with increasing concentrations of natural or synthetic theta defensin peptide. Killing was quantified by colony counts.
Killing was quantified by colony counts. […] The limit of detection (1 colony per plate) was equal to 1×10^3 colony forming units in the incubation mixture.
Killing activity was quantified by colony counts after 18 hrs.
Killing was quantified by colony counts.
as §2
It has been proposed that salt sensitivity of airway defensins underlies the susceptibility of cystic fibrosis patients to pulmonary infections.
as §5

[10] = system: C. neoformans; assay: Microbicidal suspension assay (colony counts); assay type: cell-based, Cryptococcus neoformans; conditions: 2 hr, 37° C., 10 mM PIPES, pH 7.4, 5 mM glucose; FIG. 9D
Experimental: as §1, §2

[11] = 10, 30, 100 or 300 μg/ml, agar seeded with 1×10^6 colony forming units, FIG. 7
[12] = lyophilized HPLC fractions in 5 μl of 0.01% acetic acid, compared with other isolated leukocyte peptides

Structure (SMILES): CC[C@H](C)[C@@H]1NC(=O)[C@@H]2CSSC[C@H](NC(=O)[C@H](CCCNC(=N)N)NC(=O)[C@@H]3CSSC[C@H](NC1=O)C(=O)N[C@@H]([C@@H](C)O)C(=O)N[C@@H](CCCNC(=N)N)C(=O)NCC(=O)N[C@@H](Cc1ccccc1)C(=O)N3)C(=O)N[C@@H](CC(C)C)C(=O)N[C@H]1CSSC[C@H](NC(=O)[C@H](C(C)C)NC(=O)CNC(=O)[C@H](CCCNC(=N)N)NC(=O)[C@H](CCCNC(=N)N)NC1=O)C(=O)N[C@@H](CCCNC(=N)N)C(=O)N2 [RTD-1] (cyclo(GFCRCLCRRGVCRCICTR); disulfide 3-16, 5-14, 7-12)
- microbicidal activity [1]: killed
- zone of inhibition [2, 11]: dose dependent increase in the zone of inhibition
- antibacterial activity (screen of purified chromatographic peaks) [2, 12]: greatest activity of any of the peptides isolated
- zone of inhibition [3, 11]: dose dependent increase in the zone of inhibition
- antibacterial activity (screen of purified chromatographic peaks) [3, 12]: greatest activity of any of the peptides isolated
- microbicidal activity [4]: killed
- microbicidal activity [5]: killed
- zone of inhibition [6]: dose dependent increase in the zone of inhibition
- zone of inhibition [7]: dose dependent increase in the zone of inhibition
- microbicidal activity ([8]; 2 hr, 37° C., 10 mM PIPES, pH 7.4, 5 mM glucose, FIG. 9C): killed
- activity of cyclic form relative to acyclic form ([8]; gram negative bacteria (E. coli)): about three times more active
- effect of NaCl on staphylocidal activity ([9]; 10 μg/ml peptide, 2 h incubation, NaCl concentrations as high as 150 mM, FIG. 9E): little effect
- microbicidal activity ([9]; 37° C., 10 mM PIPES, pH 7.4, 5 mM glucose, FIG. 9): killed
- peptide concentration reducing colony counts to below the level of detection ([9]; 2 h at 37° C. in 10 mM PIPES, pH 7.4, FIG. 8): ≥ 4 µg/mL
- activity of cyclic form relative to acyclic form ([9]; gram positive bacteria (Staphylococcus)): about three times more active
- microbicidal activity [10]: killed
